Results from BindingDB's records for doi:10.1016/j.bmcl.2014.03.017 (Alcon Laboratories, 2014).

test: Inhibition of ROCK-2 in human GTM3 cells measured up to 2 days by cell impedance assay

EC50	Compound
416 nM	c1nc(N2CCCC2)c(N2CCCNCC2)nc1-c1cc2cn[nH]c2cn1
260 nM	c1cc2[nH]ncc2cc1-c1cncc(N2CCCNCC2)n1
380 nM	Cc1n[nH]c2ccc(-c3cncc(N4CCCNCC4)n3)cc12

Continued, compound first:

Compound	EC50
CN(C)CC(O)CN1CCN(c2nc(-c3ccncc3)cnc2N2CCCC2)CC1 (configuration not stated)	1500 nM
CC(=O)NCC(O)CN1CCN(c2nc(-c3ccncc3)cnc2N2CCCC2)CC1 (configuration not stated)	1700 nM
CC(=O)NCCCN1CCN(c2nc(-c3ccncc3)cnc2N2CCCC2)CC1	760 nM
OCCN1CCN(c2nc(-c3ccncc3)cnc2N2CCCC2)CC1 [2-(4-(6-(pyridin-4-yl)-3-(pyrrolidin-1-yl)pyrazin-2-yl)piperazin-1-yl)ethanol]	680 nM
